The nature of experiment [1]: Cytotoxicity against human OC3-IV2 cells incubated for 48 hrs by MTT reagent based spectrophotometric analysis. It counts as functional, cell-based. As to conditions: OC3-IV2, 48 h. Background: Tetrazolium dyes change colour on reduction, which living cells bring about.
A further experiment has as its system U-87 MG. In words: Cytotoxicity against human U87 cells incubated for 48 hrs by MTT reagent based spectrophotometric analysis. It counts as functional, cell-based, U-87MG ATCC.
For a further experiment, the system named is NCI-H1299. Briefly: Cytotoxicity against human NCI-H1299 cells incubated for 48 hrs by MTT reagent based spectrophotometric analysis. Type of experiment: functional, cell-based. As to conditions: NCI-H1299, 48 h.
The test system of experiment [2] is PC-3. In words: Cytotoxicity against human PC-3 cells incubated for 48 hrs by MTT reagent based spectrophotometric analysis. It counts as functional, cell-based. The note with it: PC-3, 48 h.
Experiment [3] in a line: Antitumor activity against human OC3-IV2 cells xenografted in CB17-Prkdcscid/CrlNarl mouse assessed as reduction in tumor size at 2 mg/kg,ip administrated once every 3 days for 2 weeks. The arrangement: scale not given: the % may be the effect or the level left. It counts as functional. (Xenograft models place foreign cells or tissue in a host animal.)
Experiment [4] deals with MCF7. Briefly: Antiproliferative activity against human MCF7 cells assessed as inhibition of cell growth incubated for 24 hrs by MTT assay. Type of experiment: functional, cell-based. The note with it: MCF7, 24 h.
Experiment [5] has as its system HCT-116. In words: Antiproliferative activity against human HCT-116 cells assessed as inhibition of cell growth incubated for 24 hrs by MTT assay. Type of experiment: functional, cell-based. The note with it: HCT-116, 24 h.
A further experiment concerns HL-60. In words: Antiproliferative activity against human HL-60 cells assessed as inhibition of cell growth incubated for 72 hrs by MTT assay. It counts as functional, cell-based. As to conditions: HL-60, 72 h.
The test system of the next experiment is AGS. Briefly: Antiproliferative activity against human AGS cells assessed as inhibition of cell growth incubated for 72 hrs by MTT assay. It counts as functional, cell-based.
The subject of a further experiment is SK-MES-1. In words: Antiproliferative activity against human SK-MES-1 cells assessed as inhibition of cell growth incubated for 72 hrs by MTT assay. Type of experiment: functional, cell-based. As to conditions: SK-MES-1, 72 h.
In a further experiment the test system is J82. In words: Antiproliferative activity against human J82 cells assessed as inhibition of cell growth incubated for 72 hrs by MTT assay. It counts as functional, cell-based. As to conditions: J82, 72 h.
The subject of a further experiment is A253 cell line. In words: Cytotoxicity against human A253 cell line incubated for 48 hrs by MTT assay. The note with it: A253, 48 h. It counts as functional, cell-based.
A further experiment deals with SCC-9. In words: Cytotoxicity against human SCC-9 cells incubated for 48 hrs by MTT assay. Type of experiment: functional, cell-based. As to conditions: SCC-9, 48 h.
Experiment [6] deals with SCC-25. In words: Cytotoxicity against human SCC-25 cells incubated for 48 hrs by MTT assay. Type of experiment: functional, cell-based. The note with it: SCC-25, 48 h.
Experiment [7] relates to SCC-25. In words: Induction of apoptosis in human SCC-25 cells at 7 uM incubated for 48 hrs by annexin V-FITC/PI staining based flow cytometry relative to control. Type of experiment: functional.
Experiment [8] has as its system HepG2. In words: Cytotoxicity against human HepG2 cells assessed as reduction in cell viability incubated for 48 hrs by MTT reagent based spectrophotometric analysis. The note with it: HepG2, 48 h. It counts as functional.
Experiment [9] has as its system HCT-116. Briefly: Cytotoxicity against human HCT-116 cells assessed as reduction in cell viability incubated for 48 hrs by MTT reagent based spectrophotometric analysis. It counts as functional. As to conditions: HCT-116, 48 h.
Another experiment has as its system SK-OV-3. In words: Cytotoxicity against human SK-OV-3 cells assessed as reduction in cell viability incubated for 48 hrs by MTT reagent based spectrophotometric analysis. As to conditions: SK-OV-3, 48 h. Type of experiment: functional.
The subject of experiment [10] is HepG2. Briefly: Antitumor activity against human HepG2 cells xenografted in BALB/c mouse assessed as reduction in tumor growth at 10 to 20 mg/kg,iv administrated once every 3 days for 3 weeks. It counts as functional. The arrangement: scale not given: the % may be the effect or the level left. As to conditions: dose 10-20 mg/kg.
Experiment [11] concerns HCT-15. Briefly: Cytotoxicity against human HCT-15 cells incubated for 48 hrs by MTT assay. Type of experiment: functional, cell-based. The note with it: HCT-15, 48 h.
The next experiment concerns MDA-MB-231. Briefly: Cytotoxicity against human MDA-MB-231 cells incubated for 48 hrs by MTT assay. Type of experiment: functional, cell-based. As to conditions: MDA-MB-231, 48 h.
Experiment [12] relates to Bel-7402. In words: Cytotoxicity against human Bel-7402 cells incubated for 48 hrs by MTT assay. As to conditions: Bel-7402, 48 h. Type of experiment: functional, cell-based.
In experiment [13] the test system is HCT-116. Briefly: Cytotoxicity against human HCT-116 cells incubated for 48 hrs by MTT assay. Type of experiment: functional, cell-based. The note with it: HCT-116, 48 h.
The subject of the next experiment is A2780. Briefly: Cytotoxicity against human A2780 cells incubated for 48 hrs by MTT assay. Type of experiment: functional, cell-based. As to conditions: A2780, 48 h.
The test system of experiment [14] is HCT-15. In words: Antiproliferative activity against human HCT-15 cells assessed as inhibition of cell growth incubated for 72 hrs by MTT reagent based microplate reader assay. Type of experiment: functional. The note with it: HCT-15, 72 h.
A further experiment concerns MGC-803. In words: Antiproliferative activity against human MGC-803 cells assessed as inhibition of cell growth incubated for 72 hrs by MTT reagent based microplate reader assay. It counts as functional. As to conditions: MGC-803, 72 h.
Experiment [15] deals with Bel-7402. In words: Antiproliferative activity against human Bel-7402 cells assessed as inhibition of cell growth incubated for 72 hrs by MTT reagent based microplate reader assay. It counts as functional. As to conditions: Bel-7402, 72 h.
Experiment [16] deals with MCF7. Briefly: Antiproliferative activity against human MCF7 cells assessed as inhibition of cell growth incubated for 72 hrs by MTT reagent based microplate reader assay. It counts as functional. As to conditions: MCF7, 72 h.
Another experiment deals with HeLa. Briefly: Cytotoxicity against human HeLa cells assessed as reduction in cell viability incubated for 48 hrs by MTT assay. It counts as functional, cell-based.
Experiment [17] concerns MCF7. In words: Cytotoxicity against human MCF7 cells assessed as reduction in cell viability incubated for 48 hrs by MTT assay. As to conditions: MCF7, 48 h. It counts as functional, cell-based.
Experiment [18] relates to PC-3. Briefly: Cytotoxicity against human PC-3 cells assessed as reduction in cell viability incubated for 48 hrs by MTT assay. It counts as functional, cell-based. As to conditions: PC-3, 48 h.
The next experiment relates to DU-145. In words: Cytotoxicity against human DU-145 cells assessed as reduction in cell viability incubated for 48 hrs by MTT assay. It counts as functional, cell-based. As to conditions: DU-145, 48 h.
For experiment [19], the system named is HCT-15. In words: Cytotoxicity against human HCT-15 cells assessed as reduction in cell viability incubated for 48 hrs by MTT assay. As to conditions: HCT-15, 48 h. Type of experiment: functional, cell-based.

SMILES strings stand for the structures.

This is an account of results in ChEMBL document CHEMBL5512632, “Unlocking the potential of 1,4-naphthoquinones: A comprehensive review of their anticancer properties” (Eur J Med Chem, 2024).

Turning to `CC1=CC(=O)c2cccc(O)c2C1=O`, the IC50 – broadly, the point on the concentration scale where inhibition reaches its midpoint – was 5.4 µM in experiment [1], 2.4 µM in the experiment on U-87 MG, 1.5 µM in the experiment with NCI-H1299 and 6 µM with PC-3 [2]. For the same molecule, the Activity in experiment [3] is listed as 50%.

Turning to `CC1=C/C(=N\NC(=O)CCCCCCCCCC(=O)NN)c2ccccc2C1=O`, the IC50 was determined as 56 µM in the experiment with MCF7 [4] and 75 µM in the experiment on HCT-116 [5].

In the case of `CC(=O)N(C1=C2NCCN=C2c2ccccc2C1=O)c1ccccc1`, the IC50 came to 11.9 µM in the experiment on HL-60, 15.5 µM with AGS, 6.4 µM with SK-MES-1 and 2 µM in the experiment on J82.

Regarding `Cc1cn([C@H]2C[C@H](N=[N+]=[N-])[C@@H](COC3=C(Cl)C(=O)c4ccccc4C3=O)O2)c(=O)[nH]c1=O`, the IC50 with A253 cell line was 5.99 µM; with SCC-9, 8 µM; with SCC-25 [6] it was 6.15 µM. In addition, in the experiment on SCC-25 [7], the Activity was 30%.

On to `CCCNC(=O)C(Cc1ccccc1)NC1=C/C(=N/O)c2ccccc2C1=O` (stereo not drawn), for which the IC50 is 0.16 µM with HepG2 [8], 0.18 µM in the experiment on HCT-116 [9] and 0.48 µM in the experiment with SK-OV-3. Besides, in the experiment on HepG2 [10], the Activity was over 60%.

Take `CCCCCCCCC(OCCC(C)C)c1ccc2c(c1OC)/C(=N\O)C=C/C2=N\O` (stereo not drawn): the IC50 in the experiment on HCT-15 [11] came out at 36.4 µM; with MDA-MB-231, 0.66 µM; in the experiment with Bel-7402 [12], 5.11 µM; in the experiment on HCT-116 [13], 21.5 µM; with A2780, 8.26 µM.

`CCCCCCCC(Oc1cc(OC)c(OC)c(OC)c1)c1ccc2c(c1)/C(=N\O)C=C/C2=N\O` (stereo not drawn): the IC50 in the experiment on HCT-15 [14] was determined as 1.64 µM; in the experiment on MGC-803 it was 3.28 µM; in the experiment with Bel-7402 [15] it was 4.21 µM; in the experiment on MCF7 [16], 6.94 µM.

For `CO/N=C1\C(c2cc3c(cc2OC)OCO3)=CC(=O)c2cc3c(cc21)OCO3`, the IC50 in the experiment on HeLa came out at 0.104 µM; in the experiment on MCF7 [17] it was 0.196 µM; in the experiment with PC-3 [18], 0.319 µM; in the experiment with DU-145, 0.023 µM; in the experiment with HCT-15 [19] it was 0.055 µM.
